Results reported in PubChem BioAssay AID270 (DTP/NCI, 2004).
“And” between values parts separate entries of the source, which are not always exact repeats. Equal entries are not always repeated. Results filed as inconclusive are left out.

System: BDF1 mice, s.c. Lewis lung carcinoma, T/C %
Assay: NCI In Vivo Anticancer Drug Screen. Data for tumor model Lewis Lung Carcinoma (subcutaneous) in B6D2F1 (BDF1) mice
Experimental: The antitumor activity of compounds was measured in mice bearing transplantable tumors. Survival or tumor size were measured and the results are expressed as the measurement made in the treated group (T) divided by the measurement made in the vehicle treated control group (C). The tumor model used in this assay is Lewis Lung Carcinoma (subcutaneous) in B6D2F1 (BDF1) mice

SMILES: CC1CCC(NC(=O)N(CCCl)N=O)CC1 (centres undefined)
- T/C (endpoint: median survival time, dose: 16.0 mg/kg/injection, schedule: Q07DX002 (ip), vehicle: saline with Tween-80, higher = longer survival): 83 % of control
- T/C (endpoint: median survival time, dose: 16.0 mg/kg/injection, schedule: Q08DX002 (ip), vehicle: saline + alcohol, higher = longer survival): 105 % of control
- T/C (endpoint: median survival time, dose: 16.0 mg/kg/injection, schedule: Q11DX002 (ip), vehicle: saline with Tween-80, higher = longer survival): 63 % of control
- T/C (endpoint: median survival time, dose: 16.0 mg/kg/injection, schedule: Q11DX002 (oral), vehicle: saline with Tween-80, higher = longer survival): 103 % of control
- T/C (endpoint: median survival time, dose: 18.0 mg/kg/injection, schedule: Q01DX001 (ip), vehicle: other, higher = longer survival): 118 % of control
- T/C (endpoint: median survival time, dose: 20.0 mg/kg/injection, schedule: Q01DX001 (ip), vehicle: Klucel (hydroxypropylcellulose) (HPC), higher = longer survival): 115 % of control
- T/C (endpoint: median survival time, dose: 22.0 mg/kg/injection, schedule: Q01DX005 (ip), vehicle: saline with Tween-80, higher = longer survival): 113 % of control
- T/C (endpoint: median survival time, dose: 24.0 mg/kg/injection, schedule: Q07DX002 (ip), vehicle: saline with Tween-80, higher = longer survival): 77 % of control
- T/C (endpoint: median survival time, dose: 24.0 mg/kg/injection, schedule: Q08DX002 (ip), vehicle: gum acacia, higher = longer survival): 165 % of control
- T/C (endpoint: median survival time, dose: 24.0 mg/kg/injection, schedule: Q11DX002 (ip), vehicle: saline with Tween-80, higher = longer survival): 110 % of control
- T/C (endpoint: median survival time, dose: 24.0 mg/kg/injection, schedule: Q11DX002 (oral), vehicle: saline with Tween-80, higher = longer survival): 103 % of control
- T/C (endpoint: median survival time, dose: 25.0 mg/kg/injection, schedule: Q04DX004 (ip), vehicle: saline with Tween-80, higher = longer survival): 111 % of control
- T/C (endpoint: median survival time, dose: 30.0 mg/kg/injection, schedule: Q01DX001 (ip), vehicle: Klucel (hydroxypropylcellulose) (HPC), higher = longer survival): 150 % of control
- T/C (endpoint: median survival time, dose: 30.0 mg/kg/injection, schedule: Q01DX001 (ip), vehicle: saline with Tween-80, higher = longer survival): 160 % of control
- T/C (endpoint: median survival time, dose: 32.0 mg/kg/injection, schedule: Q01DX001 (ip), vehicle: saline + alcohol, higher = longer survival): 86 % of control and 88 % of control
- T/C (endpoint: median survival time, dose: 36.0 mg/kg/injection, schedule: Q10DX002 (ip), vehicle: gum acacia, higher = longer survival): 108 % of control
- T/C (endpoint: median survival time, dose: 36.0 mg/kg/injection, schedule: Q12DX002 (ip), vehicle: gum acacia, higher = longer survival): 93 % of control
- T/C (endpoint: median survival time, dose: 60.0 mg/kg/injection, schedule: Q01DX001 (ip), vehicle: Klucel (hydroxypropylcellulose) (HPC), higher = longer survival): 90 % of control
- T/C (endpoint: median survival time, dose: 60.0 mg/kg/injection, schedule: Q01DX001 (ip), vehicle: saline with Tween-80, higher = longer survival): 112 % of control
- T/C (endpoint: median survival time, dose: 64.0 mg/kg/injection, schedule: Q01DX001 (ip), vehicle: saline + alcohol, higher = longer survival): 57 % of control
- T/C (endpoint: median survival time, dose: 128.0 mg/kg/injection, schedule: Q01DX001 (ip), vehicle: saline + alcohol, higher = longer survival): 49 % of control
- T/C (endpoint: median tumor weight (est.), dose: 2.0 mg/kg/injection, schedule: Q01DX009 (ip), vehicle: Klucel (hydroxypropylcellulose) (HPC), higher = larger tumour): 82 % of control
- T/C (endpoint: median tumor weight (est.), dose: 4.0 mg/kg/injection, schedule: Q01DX009 (ip), vehicle: Klucel (hydroxypropylcellulose) (HPC), higher = larger tumour): 51 % of control
- T/C (endpoint: median tumor weight (est.), dose: 7.0 mg/kg/injection, schedule: Q01DX001 (ip), vehicle: DMSO, higher = larger tumour): 59 % of control
- T/C (endpoint: median tumor weight (est.), dose: 7.0 mg/kg/injection, schedule: Q01DX001 (ip), vehicle: saline with Tween-80, higher = larger tumour): 90 % of control
- T/C (endpoint: median tumor weight (est.), dose: 7.0 mg/kg/injection, schedule: Q01DX001 (sc), vehicle: olive oil, sesame oil, peanut oil, higher = larger tumour): 83 % of control
- T/C (endpoint: median tumor weight (est.), dose: 7.5 mg/kg/injection, schedule: Q01DX001 (ip), vehicle: Klucel (hydroxypropylcellulose) (HPC), higher = larger tumour): 92 % of control
- T/C (endpoint: median tumor weight (est.), dose: 8.0 mg/kg/injection, schedule: Q01DX009 (ip), vehicle: Klucel (hydroxypropylcellulose) (HPC), higher = larger tumour): 3 % of control
- T/C (endpoint: median tumor weight (est.), dose: 11.0 mg/kg/injection, schedule: Q01DX001 (ip), vehicle: DMSO, higher = larger tumour): 16 % of control
- T/C (endpoint: median tumor weight (est.), dose: 11.0 mg/kg/injection, schedule: Q01DX001 (ip), vehicle: saline with Tween-80, higher = larger tumour): 56 % of control
- T/C (endpoint: median tumor weight (est.), dose: 11.0 mg/kg/injection, schedule: Q01DX001 (sc), vehicle: olive oil, sesame oil, peanut oil, higher = larger tumour): 53 % of control
- T/C (endpoint: median tumor weight (est.), dose: 12.0 mg/kg/injection, schedule: Q01DX001 (ip), vehicle: gum acacia, higher = larger tumour): 41 % of control and 50 % of control
- T/C (endpoint: median tumor weight (est.), dose: 15.0 mg/kg/injection, schedule: Q01DX001 (ip), vehicle: Klucel (hydroxypropylcellulose) (HPC), higher = larger tumour): 42 % of control
- T/C (endpoint: median tumor weight (est.), dose: 16.0 mg/kg/injection, schedule: Q01DX001 (ip), vehicle: gum acacia, higher = larger tumour): 46 % of control
- T/C (endpoint: median tumor weight (est.), dose: 16.0 mg/kg/injection, schedule: Q01DX001 (ip), vehicle: saline with Tween-80, higher = larger tumour): 71 % of control
- T/C (endpoint: median tumor weight (est.), dose: 16.0 mg/kg/injection, schedule: Q01DX001 (sc), vehicle: olive oil, sesame oil, peanut oil, higher = larger tumour): 74 % of control
- T/C (endpoint: median tumor weight (est.), dose: 24.0 mg/kg/injection, schedule: Q01DX001 (ip), vehicle: saline with Tween-80, higher = larger tumour): 31 % of control
- T/C (endpoint: median tumor weight (est.), dose: 24.0 mg/kg/injection, schedule: Q01DX001 (sc), vehicle: olive oil, sesame oil, peanut oil, higher = larger tumour): 18 % of control
- T/C (endpoint: median tumor weight (est.), dose: 30.0 mg/kg/injection, schedule: Q01DX001 (ip), vehicle: Klucel (hydroxypropylcellulose) (HPC), higher = larger tumour): 3 % of control
